Assays:
[1] = tested on: patients with a first episode of recurrent pericarditis; settings: at 18 months; conventional treatment with aspirin plus colchicine (1.0-2.0 mg first day, then 0.5-1.0 mg/d for 6 months); vs 50.6% with conventional treatment; cited from earlier work
[2] = tested on: patients with objectively diagnosed and clinically stable coronary disease; assay: LoDoCo Trial: prospective randomized observer blinded end-point trial of colchicine 0.5 mg/day added to standard secondary prevention therapies
Method: To assess the therapeutic effects of an immediate release formulation in patients with cardiovascular disease, a prospective randomized observer blinded end-point trial was conducted to determine whether adding 0.5 mg/day of colchicine to standard secondary prevention therapies including aspirin and high dose statins reduces the risk of cardiovascular events in patients with objectively diagnosed and clinically stable coronary disease.
Eligible consenting patients with established coronary disease presenting for routine clinical review were randomized to receive colchicine 0.5 mg/day or no colchicine without any other change to their medical therapy. All outcomes were evaluated by an experienced adjudicator blinded to the treatment allocation.
It was planned to recruit a study population that would include 500 patients planned (532 patients randomized as 32 dropped out early), 250 randomized to the control group and 250 patients randomized to treatment who were tolerant of colchicine for at least 4 weeks after the date of their randomization. Patients were eligible for inclusion if they met each of the following criteria: 1) angiographically proven coronary disease; 2) aged 35 to 85 years; 3) clinically stable for at least 6 months, 4) no major competing co-morbidities or contra-indication to colchicine therapy, 5) considered to be compliant with therapy and attending routine cardiology follow up appointments, and 6) willing to be consented and randomized into the study. Patients with a history of bypass surgery were only eligible if they had undergone bypass surgery more than 10 years before, or had angiographic evidence of graft failure or had undergone stenting since their bypass surgery. All patients signed informed consent before randomization.
The randomization sequence was computer generated, kept concealed from the investigators at all times and was managed by a research assistant who had no involvement in the evaluation or management of study patients. […] Despite electing to use the lowest dose of colchicine available, it was anticipated that a number of patients would withdraw from therapy early after randomization due to gastrointestinal side effects. In order to ensure that the requisite number of patients in the treatment arm were actually tolerant of treatment, the protocol allowed for the research assistant to assign a newly recruited patient to treatment if a patient discontinued colchicine due to side effects in the first month. Patients who were intolerant to therapy remained in the study, and were followed in the usual manner and included in the primary intention to treat analysis.
The drug was dispensed by their usual chemist, and if requested, patients were reimbursed for the cost of these scripts. All other treatments were continued as usual.
Patient compliance with treatment and outcome data were collected at routine follow up visits and at the time of any unplanned hospital admission. An acute coronary syndrome (ACS) was defined as either (a) Acute Myocardial Infarction (AMI), as evidenced by acute ischemic chest pain associated with a rise in serum troponin above the upper limit of normal or (b) Unstable Angina (UA), as evidenced by a recent acceleration of the patient's angina unassociated with a rise in serum troponin but associated with angiographic evidence of a change in the patient's coronary anatomy. […] The ACS was characterized as being stent-related if there was evidence of significant in-stent stenosis or acute stent thrombosis. Out of Hospital Cardiac Arrest was defined as either a sudden death as evidenced on the patient's death certificate, or a non-fatal out of hospital cardiac arrest, defined as a recovery from sudden collapse associated with documented asystole, ventricular tachycardia or ventricular fibrillation.

[3] = No treatment (no antithrombotic), n=1
[4] = Treated with Aspirin + clopidogrel + warfarin, n=2
[5] = Treated with Aspirin + clopidogrel, n=33
[6] = Treated with Aspirin + warfarin, n=6
[7] = Treated with Aspirin alone, n=173
[8] = Treated with Clopidogrel alone or warfarin alone (no aspirin), n=28
[9] = Treated with Clopidogrel alone, n=12
[10] = Treated with Warfarin alone, n=16
[11] = Treated with at least aspirin, n=214
[12] = Treated with at least one antiplatelet drug (aspirin, clopidogrel or combinations), n=226
[13] = Treated with at least one antithrombotic drug (aspirin, clopidogrel or warfarin or combinations), n=242
[14] = of 282 randomized to treatment, colchicine 0.5 mg/day

COc1cc2c(c(OC)c1OC)-c1ccc(OC)c(=O)cc1[C@@H](NC(C)=O)CC2 [colchicine, N[5,6,7,9-tetrahydro-1,2,3,10-tetratmethoxy 9-oxobenzo[a]heptalen-7-yl],(S)-acetamide]
recurrence rate (actuarial rate) [1]: 24.0%
stent related ACS with evidence of acute stent thrombosis, patients ([2]; 2 in each group): 2
stent related ACS with evidence of significant in-stent stenosis, patients ([2]; 2 in each group): 2
Primary Outcome, number of patients [2, 3]: 0
Primary Outcome, percent [2, 3]: (0%)
Primary Outcome, number of patients ([2]; Total, colchicine group n=243): 11
Primary Outcome, percent ([2]; Total, colchicine group n=243): (4.5%)
Primary Outcome, number of patients [2, 4]: 0
Primary Outcome, percent [2, 4]: (0%)
Primary Outcome, number of patients [2, 5]: 3
Primary Outcome, percent [2, 5]: (9%)
Primary Outcome, number of patients [2, 6]: 0
Primary Outcome, percent [2, 6]: (0%)
Primary Outcome, number of patients [2, 7]: 7
Primary Outcome, percent [2, 7]: (4%)
Primary Outcome, number of patients [2, 8]: 1
Primary Outcome, percent [2, 8]: (3.45%)
Primary Outcome, number of patients [2, 9]: 1
Primary Outcome, percent [2, 9]: (8.3%)
Primary Outcome, number of patients [2, 10]: 0
Primary Outcome, percent [2, 10]: (0%)
Primary Outcome, number of patients [2, 11]: 10
Primary Outcome, percent [2, 11]: (4.67%)
Primary Outcome, number of patients [2, 12]: 11
Primary Outcome, percent [2, 12]: (4.9%)
Primary Outcome, number of patients [2, 13]: 11
Primary Outcome, percent [2, 13]: 4.5%
Primary Outcome, percent ([2]; Treated with at least one antithrombotic drug (aspirin, clopidogrel or warfarin or combinations), n=242, listed as Colchicine): (4.5%)
patients who died of non-cardiac causes ([2]; colchicine group, all deaths): 4 patients
patients who died ([2]; colchicine group, control group ten): 4 patients
AMI unrelated to stent disease, hazard ratio ([2]; colchicine vs control, 95% CI 0.08-0.76, p=0.014): 0.25
UA unrelated to stent disease, hazard ratio ([2]; colchicine vs control, 95% CI 0.10-0.75, p=0.011): 0.27
ACS unrelated to stent disease, hazard ratio ([2]; colchicine vs control, 95% CI 0.12-0.55, p<0.001): 0.26
ACS, hazard ratio ([2]; colchicine vs control, 95% CI 0.18-0.63, p<0.001): 0.33
primary outcome, number needed to treat ([2]; intention-to-treat, colchicine vs control): 11
primary outcome, hazard ratio ([2]; intention-to-treat, colchicine vs control, 95% CI 0.18-0.59, p<0.001): 0.33
primary outcome, percent of patients ([2]; intention-to-treat, colchicine 0.5 mg/day, median follow up 36 months, control 16%): 5.3%
primary outcome (ACS, out of hospital cardiac arrest or non-cardio-embolic ischemic stroke), patients with event / patients assigned ([2]; intention-to-treat, colchicine 0.5 mg/day, median follow up 36 months, control 40/250): 15/282
ACS unrelated to stent disease associated with an AMI, percent ([2]; intention-to-treat, control 5.6%): 1.4%
ACS unrelated to stent disease, UA, percent ([2]; intention-to-treat, control 6.4%): 1.8%
ACS unrelated to stent disease, percent ([2]; intention-to-treat, control 12%): 3.2%
patients presenting with an ACS, percent ([2]; intention-to-treat, control 13.4%): 4.6%
ACS unrelated to stent disease associated with an AMI, patients / patients assigned ([2]; intention-to-treat, control 14/250): 4/282
ACS unrelated to stent disease, UA, patients / patients assigned ([2]; intention-to-treat, control 16/250): 5/282
ACS unrelated to stent disease, patients / patients assigned ([2]; intention-to-treat, control 30/250): 9/282
patients presenting with an ACS / patients assigned ([2]; intention-to-treat, control 34/250): 13/282
early intolerance due to gastrointestinal side effects, patients [2, 14]: 32
early intolerance due to gastrointestinal side effects, percent [2, 14]: 11%
events (primary outcome), hazard ratio ([2]; on-treatment analysis vs control, 95% CI 0.15-0.56, p<0.001): 0.29
events (primary outcome), percent ([2]; on-treatment analysis: compliant and tolerant beyond the first month, control 16%): 4.5%
events (primary outcome), patients / patients compliant and tolerant ([2]; on-treatment analysis: compliant and tolerant to therapy beyond the first month, control 40/250): 11/243
out of hospital cardiac arrest and non-cardio-embolic ischemic stroke ([2]; treatment group vs control, infrequent events): also reduced

From patent publication US10842762B2, “Method of treating cardiovascular events using colchicine concurrently with an antiplatelet agent” (Murray and Poole Enterprises, LTD., priority 2012, dated 2020)
